Reference: patent US8420676B2, “Oxazolidinone derivatives” (Dong-A Pharmaceuticals Co. Ltd., priority 2003, dated 2013)
≈ marks a conversion by molar mass, not a printed value.

What was measured:
[1] = Assay for solubility in distilled water (turbidity by naked eye); type: physicochemical; conditions: average of three runs; for solubility at 2 min: thermodynamic from solid
Protocol: The derivatives of the present invention were added to 200 μl of distilled water and then the solution was stirred for 2 minutes. The turbidity of the solution was watched through naked eye.
When the derivatives were not dissolved completely, 50 μl of distilled water was added to the solution and then the turbidity of the solution was assayed in the above manner to find a point of becoming transparent solution.
When 2 mg of the derivatives was first added to distilled water and completely dissolved so that the solution became transparent, 2 mg of the derivatives was added more to the solution and then state of the solution was watched. The derivatives of the present invention were added to the five times and then solubility of the solution was assayed for. The assay for solubility was carried out the three times repeatedly in the above method and the results were averaged.

[2] = test system: ICR mice; assay: Test of acute toxicity by oral administration to mouse; type: in vivo; conditions: 1% hydroxypropylmethylcellulose, observed 2 weeks
Protocol: To test acute toxicity of the compounds of the present invention, the following experiment was carried out.
A mixture of 1% hydroxypropylmethylcellulose and 200 mg of one selected from the group consisting of the compounds 10, 12, 16, 17, 20, 22, 24 and 27 was administrated to 5 ICR mice (5-Week old males, 20 g±2 g by weight). And then lethality for 2 weeks, weight, symptoms etc. was watched to determine Minimum Lethal Dose (MLD, mg/kg). […]

[3] = test system: vancomycin resistant Enterococci (VRE); assay: Assay for in vitro antibacterial activity, agar dilution (VRE); conditions: Enterococcus, read-out: Minimum Inhibitory Concentration (MIC50) VRE
[4] = test system: methicillin resistant Staphylococcus aureus (MRSA); assay: Assay for in vitro antibacterial activity, agar dilution (MRSA); conditions: read-out: Minimum Inhibitory Concentration (MIC50) MRSA

SMILES	solubility at 2 min [1]	Minimum Lethal Dose (MLD) [2]	MIC50 [3]	MIC50 [4]	Solubility [1]
Cn1nnc(-c2ccc(-c3ccc(N4C[C@H](CO)OC4=O)cc3F)cn2)n1 [Compound 10, (R)-3-(4-(2-(2-methyltetrazol-5-yl)pyridin-5-yl)-3-fluorophenyl)-5-hydroxymethyl oxazolidin-2-one]	10 µg/mL (≈ 27 µM)	>1000 mg/kg	0.25 µg/mL (≈ 0.675 µM)	0.5 µg/mL (≈ 1.35 µM)	
Cn1nnc(-c2ccc(-c3ccc(N4C[C@H](COC(=O)CN)OC4=O)cc3F)cn2)n1 [Compound 12, (R)-3-(4-(2-(2-methyltetrazol-5-yl)pyridin-5-yl)-3-fluorophenyl)-5-glycyloxymethyl oxazolidin-2-one trifluoroacetic acid]		>1000 mg/kg			28000 µg/mL (≈ 65500 µM)
Cc1nnc(-c2ccc(-c3ccc(N4C[C@H](CO)OC4=O)cc3F)cn2)o1 [Compound 16, (R)-3-(4-(2-(2-methyl-[1,3,4]oxadiazol-5-yl)pyridin-5-yl)-3-fluorophenyl)-5-hydroxymethyl oxazolidin-2-one]	20 µg/mL (≈ 54 µM)	>1000 mg/kg	1 µg/mL (≈ 2.7 µM)	0.5 µg/mL (≈ 1.35 µM)	
O=C1O[C@@H](CO)CN1c1ccc(-c2ccc(-n3cncn3)nc2)c(F)c1 [Compound 17, (R)-3-(4-(2-[1,2,4]triazol-1-ylpyridin-5-yl)-3-fluorophenyl)-5-hydroxymethyl oxazolidin-2-one]		>1000 mg/kg	1 µg/mL (≈ 2.81 µM)	1 µg/mL (≈ 2.81 µM)	
CC(C)[C@H](N)C(=O)OC[C@H]1CN(c2ccc(-c3ccc(-c4nnn(C)n4)nc3)c(F)c2)C(=O)O1 [Compound 20, (R)-3-(4-(2-(2-methyltetrazol-5-yl)pyridin-5-yl)-3-fluorophenyl)-5-(L-valyloxy)methyl oxazolidin-2-one trifluoroacetic acid]		>1000 mg/kg			4700 µg/mL (≈ 10000 µM)
NCC(=O)OC[C@H]1CN(c2ccc(-c3ccc(-n4ccnn4)nc3)c(F)c2)C(=O)O1 [Compound 22, (R)-3-(4-(2-([1,2,3]triazol-1-yl)pyridin-5-yl)-3-fluorophenyl)-5-glycyloxymethyl oxazolidin-2-one trifluoroacetic acid]		>1000 mg/kg	1 µg/mL (≈ 2.42 µM)	1 µg/mL (≈ 2.42 µM)	
O=C1O[C@@H](CO)CN1c1ccc(-c2ccc(-n3ccnn3)nc2)c(F)c1 [Compound 24, (R)-3-(4-(2-([1,2,3]triazol-1-yl)pyridin-5-yl)-3-fluorophenyl)-5-hydroxymethyl oxazolidin-2-one]		>1000 mg/kg	0.5 µg/mL (≈ 1.41 µM)	0.5 µg/mL (≈ 1.41 µM)	
Cc1nnc(-c2ccc(-c3ccc(N4C[C@H](COC(=O)CN)OC4=O)cc3F)cn2)o1 [Compound 27, (R)-3-(4-(2-(2-methyl-[1,3,4]oxadiazole-5-yl)pyridin-5-yl)-3-fluorophenyl)-5-glycyloxymethyl oxazolidin-2-one trifluoroacetic acid]	> 50000 µg/mL	>1000 mg/kg			
Cc1nnc(-c2ccc(-c3ccc(N4C[C@H](COC(=O)CCN)OC4=O)cc3F)cn2)o1.Cl [Compound 58, (R)-3-(4-(2-(2-methyl-[1,3,4]oxadiazol-5-yl)pyridin-5-yl)-3-fluorophenyl)-5-(β-alanyloxy)methyl oxazolidin-2-one hydrochloride]	5500 µg/mL		1 µg/mL	0.5 µg/mL	
Cn1nnc(-c2ccc(-c3ccc(N4C[C@H](COP(=O)([O][Na+])[O][Na+])OC4=O)cc3F)cn2)n1 [Compound 59, (R)-[3-(4-(2-(2-methyltetrazol-5-yl)pyridin-5-yl)-3-fluorophenyl)-2-oxo-5-oxazolidinyl]methyl disodiumphosphate]	> 50000 µg/mL		0.25 µg/mL	0.5 µg/mL	
Cc1nnc(-c2ccc(-c3ccc(N4C[C@H](COP(=O)([O][Na+])[O][Na+])OC4=O)cc3F)cn2)o1 [Compound 60, (R)-[3-(4-(2-(2-methyl-[1,3,4]oxadiazol-5-yl)pyridin-5-yl)-3-fluorophenyl)-2-oxo-5-oxazolidinyl]methyl disodiumphosphate]	> 50000 µg/mL		1 µg/mL	0.5 µg/mL	
Cn1nnnc1-c1ccc(-c2ccc(N3C[C@H](COP(=O)([O-])[O-])OC3=O)cc2F)cn1.[Na+].[Na+] [Compound 70, (R)-[3-(4-(2-(1-methyltetrazol-5-yl)pyridin-5-yl)-3-fluorophenyl)-2-oxo-5-oxazolidinyl]methyl disodiumphosphate]	> 50000 µg/mL		0.25 µg/mL	0.5 µg/mL	
